The test system of one test is Bacillus subtilis. Kind of test: Antibacterial activity against Bacillus subtilis. The format is functional.
For a further test, the system named is Candida albicans. The experiment in a line: Antifungal activity against Candida albicans. Type of test: functional, organism-based.
A further test concerns Staphylococcus aureus. The experiment in a line: Antibacterial activity against Staphylococcus aureus. The format is functional.
The test system of another test is Micrococcus luteus. The experiment in a line: Antibacterial activity against Micrococcus luteus. The format is functional.
Test [1] deals with Trichophyton mentagrophytes. Kind of test: Antifungal activity against Trichophyton mentagrophytes. The format is functional, organism-based.
The next test concerns Cryptococcus neoformans. The experiment in a line: Antifungal activity against Cryptococcus neoformans. Type of test: functional, organism-based.
Another test concerns Escherichia coli. Kind of test: Antibacterial activity against Escherichia coli. The format is functional.
The subject of a further test is Aspergillus niger. Kind of test: Antifungal activity against Aspergillus niger. The format is functional, organism-based.

Results on 3 molecules are retold here after ChEMBL document CHEMBL2311258, “Manzamenones L-N, new dimeric fatty-acid derivatives from an Okinawan marine sponge Plakortis sp” (Bioorg Med Chem Lett, 2013).

As usually defined, the MIC is the least concentration at which growth counts as inhibited. A low value points to inhibition by little substance. One may read the IC50 as the midpoint of a concentration-inhibition curve.

≈ marks a conversion by molar mass, not a printed value. Where only a bound is given, the exact number is not on record here.

Take `CCCCCCCCCCCCCCCCC1=C[C@H](C(=O)O)[C@H]2C(=O)C(C(=O)OC)=C(CCCCCCCCCCCCCCCC)[C@@]2(O)[C@H]1C(=O)OC`: the MIC against Bacillus subtilis was greater than 32 µg/mL; in the test with Staphylococcus aureus, 16 µg/mL (≈ 21.1 µM); against Micrococcus luteus, greater than 32 µg/mL; with Escherichia coli, 32 µg/mL (≈ 42.2 µM). Besides, the IC50 with Candida albicans was 32 µg/mL (≈ 42.2 µM); in test [1] it was greater than 32 µg/mL; in the test with Cryptococcus neoformans, 8 µg/mL (≈ 10.5 µM); in the test on Aspergillus niger it was greater than 32 µg/mL.

Consider `CCCCCCCCCCCCCCCCC1=C[C@H](C(=O)OC)[C@H]2C(=O)C(C(=O)OC)=C(CCCCCCCCCCCCCCCC)[C@@]2(O)[C@H]1C(=O)OC` (racemic), for which the MIC against Bacillus subtilis, in the test on Staphylococcus aureus, against Micrococcus luteus and with Escherichia coli was greater than 32 µg/mL in each case. The IC50 (in the test with Candida albicans; in test [1]; with Cryptococcus neoformans; in the test with Aspergillus niger) was greater than 32 µg/mL each time.

With `CCCCCCCCCCCCCCCCC1=C(C(=O)OC)C2=C(C(=O)[C@H](C(=O)OC)[C@H]2CCCCCCCCCCCCCCCC)C(C(=O)OC)C1` (some centres undefined) [MANZAMENONE N], the MIC is greater than 32 µg/mL in the test on Bacillus subtilis, greater than 32 µg/mL against Staphylococcus aureus, greater than 32 µg/mL in the test with Micrococcus luteus and 32 µg/mL (≈ 42.3 µM) against Escherichia coli. In addition, the IC50 in the test on Candida albicans was 32 µg/mL (≈ 42.3 µM); in test [1], greater than 32 µg/mL; in the test on Cryptococcus neoformans, 4 µg/mL (≈ 5.28 µM); in the test with Aspergillus niger, greater than 32 µg/mL.
